The source of these data is PubChem BioAssay (NCI).

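Following 48 hours of exposure in 96-well plates, responses at five concentrations were used to interpolate endpoints linearly. GI50: concentration for 50% inhibition of growth. The concentration for full growth arrest is given as TGI.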

What all share (assay): NCI-60 cell line screen, 48 h
Assay [1] deals with SF-539 CNS.
For assay [2], the system named is UO-31 renal.
Assay [3] deals with HCT-116 colon.
In assay [4] the test system is UACC-62 melanoma.
Assay [5] deals with CAKI-1 renal.
The test system of assay [6] is TK-10 renal.
Assay [7] concerns NCI-H23 lung.
Assay [8] deals with OVCAR-3 ovarian.
The test system of assay [9] is SK-MEL-5 melanoma.
For assay [10], the system named is SW-620 colon.

For the compound `O=C(NCP(=O)(O)O)c1cccnc1`, the TGI in assay [1], in assay [2], in [3], in assay [4], in assay [5] and in assay [6] was over 100 µM each time. Further, the TGI in assay [7], in assay [8], in assay [9] and in assay [10] was over 100 µM throughout.

As to `S=C(Nc1ccccc1)N(Cc1ccccc1)c1ccccc1`, the TGI in assay [1] was 66 µM; in assay [2], over 100 µM; in assay [3], over 100 µM; in assay [4] it was 70.7 µM; in [5], 90.3 µM; in assay [6], 80.3 µM. Moreover, the TGI in assay [7] is over 100 µM; in assay [8], over 100 µM; in assay [9], 28.5 µM; in assay [10], over 100 µM.

Take `NCCCCN(Cc1nc2ccccc2[nH]1)[C@H]1CCCc2cccnc21`: the GI50 in [1] was 13.3 µM; in assay [2], 12 µM; in assay [3] it was 6.81 µM; in assay [4] it was 17.8 µM; in [5] it was 16.1 µM; in assay [6], 25.3 µM. The GI50 was 20.4 µM in assay [7], 15.3 µM in [8], 14.5 µM in assay [9] and 12.6 µM in [10]. In addition, the TGI in assay [1] is 27.6 µM; in assay [2] it was over 72.7 µM; in assay [3], 51.3 µM; in [4], 47.4 µM; in [5], over 64.4 µM; in [6] it was over 75.3 µM. Further, the TGI was over 100 µM in [7], over 100 µM in assay [8], 27.8 µM in assay [9] and over 100 µM in assay [10].
